Test results published in US8461107B2 (Merck Sharp & Dohme Corp., priority 2008, dated 2013).

The molecules below were run against T1, HCV genotype 1b (BK) NS3 modified with a R155K mutation (Hepatitis C virus genotype 1b, UniProt P26663, R1181K) (assay: HCV NS3 protease time-resolved fluorescence (TRF) assay, NS3 protease 1b R155K Ki activity). Details: HCV genotype 1b (BK) NS3 with R155K mutation; TRF peptide substrate 100 nM; Ki derived from IC50.
T1 construct: HCV genotype 1b (BK) NS3 modified with a R155K mutation
Assay type: biochemical
Method in brief: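 Pre-incubation of NS3/NS4A protease (genotype 1b BK, R155K) with inhibitor for 30 min, then 1 h at room temperature with 100 nM TRF peptide substrate in pH 7.5 HEPES buffer with 10 mM DTT. Reaction quenched with pH 5.5 MES; time-resolved fluorescence read (ex 340/em 615 nm). Ki derived from four-parameter IC50 fit via IC50=Ki(1+[S]/KM).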
`C=C[C@@H]1C[C@]1(NC(=O)[C@@H]1C[C@@H]2CN1C(=O)[C@H](C1CCCC1)NC(=O)O[C@@H]1CCC[C@H]1CCCCCn1c(nc3cc(Br)ccc3c1=O)O2)C(=O)NS(=O)(=O)C1CC1` [(3aR,7S,10S,12R,25aR)-16-bromo-7-cyclopentyl-N-((1R,2S)-1-{[(cyclopropylsulfonyl)amino]carbonyl}-2-vinylcyclopropyl)-5,8,19-trioxo-1,2,3,3a,5,6,7,8,11,12,21,22,23,24,25,25a-hexadecahydro-10H,19H-9,12-methanocyclopenta[18,19][1,10,3,6,12]dioxatriazacyclononadecino[11,12-b]quinazoline-10-carboxamide] showed a Ki of 0.1 to 0.5 nM. `CC[C@@H]1C[C@]1(NC(=O)[C@@H]1C[C@@H]2CN1C(=O)[C@H](C1CCCCC1)NC(=O)O[C@@H]1CCC[C@H]1CCCCCn1c(cc3cc(Cl)ccc3c1=O)O2)C(=O)NS(=O)(=O)C1CC1` [(3aR,7S,10S,12R,25aR)-16-chloro-7-cyclohexyl-N-((1R,2R)-1-{[(cyclopropylsulfonyl)amino]carbonyl}-2-ethylcyclopropyl)-5,8,19-trioxo-1,2,3,3a,5,6,7,8,11,12,21,22,23,24,25,25a-hexadecahydro-10H,19H-9,12-methanocyclopenta[18,19][1,10,3,6,12]dioxatriazacyclononadecino[12,11-b]isoquinoline-10-carboxamide] gave a Ki of 0.1 to 0.5 nM. `C=C[C@@H]1C[C@]1(NC(=O)[C@@H]1C[C@@H]2CN1C(=O)[C@H](C1CCCCC1)NC(=O)O[C@@H]1CCC[C@H]1CCCCCn1c(cc3cc(Cl)ccc3c1=O)O2)C(=O)NS(=O)(=O)C1CC1` [(3aR,7S,10S,12R,25aR)-16-chloro-7-cyclohexyl-N-((1R,2S)-1-{[(cyclopropylsulfonyl)amino]carbonyl}-2-vinylcyclopropyl)-5,8,19-trioxo-1,2,3,3a,5,6,7,8,11,12,21,22,23,24,25,25a-hexadecahydro-10H,19H-9,12-methanocyclopenta[18,19][1,10,3,6,12]dioxatriazacyclononadecino[12,11-b]isoquinoline-10-carboxamide] gave a Ki of less than 0.1 nM. In the case of `CC[C@@H]1C[C@]1(NC(=O)[C@@H]1C[C@@H]2CN1C(=O)[C@H](C1CCCC1)NC(=O)O[C@@H]1CCC[C@H]1CCCCCn1c(nc3cc(Cl)ccc3c1=O)O2)C(=O)NS(=O)(=O)C1CC1` [(3aR,7S,10S,12R,25aR)-16-chloro-7-cyclopentyl-N-((1R,2R)-1-{[(cyclopropylsulfonyl)amino]carbonyl}-2-ethylcyclopropyl)-5,8,19-trioxo-1,2,3,3a,5,6,7,8,11,12,21,22,23,24,25,25a-hexadecahydro-10H,19H-9,12-methanocyclopenta[18,19][1,10,3,6,12]dioxatriazacyclononadecino[11,12-b]quinazoline-10-carboxamide], the Ki is reported as 0.1 to 0.5 nM. For `CC[C@@H]1C[C@]1(NC(=O)[C@@H]1C[C@@H]2CN1C(=O)[C@H](C1CCCC1)NC(=O)O[C@@H]1CCC[C@H]1CCCCCn1c(cc3cc(Cl)ccc3c1=O)O2)C(=O)NS(=O)(=O)C1CC1` [(3aR,7S,10S,12R,25aR)-16-chloro-7-cyclopentyl-N-((1R,2R)-1-{[(cyclopropylsulfonyl)amino]carbonyl}-2-ethylcyclopropyl)-5,8,19-trioxo-1,2,3,3a,5,6,7,8,11,12,21,22,23,24,25,25a-hexadecahydro-10H,19H-9,12-methanocyclopenta[18,19][1,10,3,6,12]dioxatriazacyclononadecino[12,11-b]isoquinoline-10-carboxamide], the Ki was 0.1 to 0.5 nM. Molecule `C=C[C@@H]1C[C@]1(NC(=O)[C@@H]1C[C@@H]2CN1C(=O)[C@H](C1CCCC1)NC(=O)O[C@@H]1CCC[C@H]1CCCCCn1c(nc3cc(Cl)ccc3c1=O)O2)C(=O)NS(=O)(=O)C1CC1` [(3aR,7S,10S,12R,25aR)-16-chloro-7-cyclopentyl-N-((1R,2S)-1-{[(cyclopropylsulfonyl)amino]carbonyl}-2-vinylcyclopropyl)-5,8,19-trioxo-1,2,3,3a,5,6,7,8,11,12,21,22,23,24,25,25a-hexadecahydro-10H,19H-9,12-methanocyclopenta[18,19][1,10,3,6,12]dioxatriazacyclononadecino[11,12-b]quinazoline-10-carboxamide] has a Ki of less than 0.1 nM. Work on `C=C[C@@H]1C[C@]1(NC(=O)[C@@H]1C[C@@H]2CN1C(=O)[C@H](C1CCCC1)NC(=O)O[C@@H]1CCC[C@H]1CCCCCn1c(cc3cc(Cl)ccc3c1=O)O2)C(=O)NS(=O)(=O)C1CC1` [(3aR,7S,10S,12R,25aR)-16-chloro-7-cyclopentyl-N-((1R,2S)-1-{[(cyclopropylsulfonyl)amino]carbonyl}-2-vinylcyclopropyl)-5,8,19-trioxo-1,2,3,3a,5,6,7,8,11,12,21,22,23,24,25,25a-hexadecahydro-10H,19H-9,12-methanocyclopenta[18,19][1,10,3,6,12]dioxatriazacyclononadecino[12,11-b]isoquinoline-10-carboxamide] yielded a Ki of less than 0.1 nM. Molecule `C=C[C@@H]1C[C@]1(NC(=O)[C@@H]1C[C@@H]2CN1C(=O)[C@H](C1CCCC1)NC(=O)O[C@@H]1CCC[C@H]1CCCCCCn1c(cc3ccccc3c1=O)O2)C(=O)NS(=O)(=O)C1CC1` [(3aR,7S,10S,12R,26aR)-7-cyclopentyl-N-((1R,2S)-1-{[(cyclopropylsulfonyl)amino]carbonyl}-2-vinylcyclopropyl)-5,8,19-trioxo-2,3,3a,5,6,7,8,11,12,21,22,23,24,25,26,26a-hexadecahydro-1H,10H,19H-9,12-methanocyclopenta[19,20][1,10,3,6,12]dioxatriazacycloicosino[12,11-b]isoquinoline-10-carboxamide] has a Ki of 0.1 to 0.5 nM. In the case of `CC[C@@H]1C[C@]1(NC(=O)[C@@H]1C[C@@H]2CN1C(=O)[C@H](C(C)(C)C)NC(=O)O[C@@H]1CCC[C@H]1CCCCCCn1c(cc3ccccc3c1=O)O2)C(=O)NS(=O)(=O)C1CC1` [(3aR,7S,10S,12R,26aR)-7-tert-butyl-N-((1R,2R)-1-{[(cyclopropylsulfonyl)amino]carbonyl}-2-ethylcyclopropyl)-5,8,19-trioxo-2,3,3a,5,6,7,8,11,12,21,22,23,24,25,26,26a-hexadecahydro-1H,10H,19H-9,12-methanocyclopenta[19,20][1,10,3,6,12]dioxatriazacycloicosino[12,11-b]isoquinoline-10-carboxamide], the Ki is reported as 1 to 5 nM. With `C=C[C@@H]1C[C@]1(NC(=O)[C@@H]1C[C@@H]2CN1C(=O)[C@H](C(C)(C)C)NC(=O)O[C@@H]1CCC[C@H]1CCCCCCn1c(cc3ccccc3c1=O)O2)C(=O)NS(=O)(=O)C1CC1` [(3aR,7S,10S,12R,26aR)-7-tert-butyl-N-((1R,2S)-1-{[(cyclopropylsulfonyl)amino]carbonyl}-2-vinylcyclopropyl)-5,8,19-trioxo-2,3,3a,5,6,7,8,11,12,21,22,23,24,25,26,26a-hexadecahydro-1H,10H,19H-9,12-methanocyclopenta[19,20][1,10,3,6,12]dioxatriazacycloicosino[12,11-b]isoquinoline-10-carboxamide] the Ki was 0.1 to 0.5 nM. Work on `CC[C@@H]1C[C@]1(NC(=O)[C@@H]1C[C@@H]2CN1C(=O)[C@H](C(C)(C)C)NC(=O)O[C@H]1CCC[C@@H]1CCCCCCn1c(cc3ccccc3c1=O)O2)C(=O)NS(=O)(=O)C1CC1` [(3aS,7S,10S,12R,26aS)-7-tert-butyl-N-((1R,2R)-1-{[(cyclopropylsulfonyl)amino]carbonyl}-2-ethylcyclopropyl)-5,8,19-trioxo-2,3,3a,5,6,7,8,11,12,21,22,23,24,25,26,26a-hexadecahydro-1H,10H,19H-9,12-methanocyclopenta[19,20][1,10,3,6,12]dioxatriazacycloicosino[12,11-b]isoquinoline-10-carboxamide] yielded a Ki of 1 to 5 nM. `C=C[C@@H]1C[C@]1(NC(=O)[C@@H]1C[C@@H]2CN1C(=O)[C@H](C(C)(C)C)NC(=O)O[C@H]1CCC[C@@H]1CCCCCCn1c(cc3ccccc3c1=O)O2)C(=O)NS(=O)(=O)C1CC1` [(3aS,7S,10S,12R,26aS)-7-tert-butyl-N-((1R,2S)-1-{[(cyclopropylsulfonyl)amino]carbonyl}-2-vinylcyclopropyl)-5,8,19-trioxo-2,3,3a,5,6,7,8,11,12,21,22,23,24,25,26,26a-hexadecahydro-1H,10H,19H-9,12-methanocyclopenta[19,20][1,10,3,6,12]dioxatriazacycloicosino[12,11-b]isoquinoline-10-carboxamide] gave a Ki of 0.5 to 1 nM. Molecule `C=C[C@@H]1C[C@]1(NC(=O)[C@@H]1C[C@@H]2CN1C(=O)[C@H](C1CCCC1)NC(=O)O[C@@H]1CCC[C@H]1C/C=C/CCn1c(cc3ccccc3c1=O)O2)C(=O)NS(=O)(=O)C1CC1` [Example 1, (3aR,7S,10S,12R,23E,25aS)-7-cyclopentyl-N-((1R,2S)-1-{[(cyclopropylsulfonyl)amino]carbonyl}-2-vinylcyclopropyl)-5,8,19-trioxo-1,2,3,3a,5,6,7,8,11,12,21,22,25,25a-tetradecahydro-10H,19H-9,12-methanocyclopenta[18,19][1,10,3,6,12]dioxatiazacyclononadecino[12,11-b]isoquinoline-10-carboxamide] has a Ki of less than 0.1 nM. Work on `C=C[C@@H]1C[C@]1(NC(=O)[C@@H]1C[C@@H]2CN1C(=O)[C@H](C1CCCC1)NC(=O)O[C@@H]1CCC[C@H]1CCCCCn1c(cc3ccccc3c1=O)O2)C(=O)NS(=O)(=O)C1CC1` [Example 13, (3aR,7S,10S,12R,25aR)-7-cyclopentyl-N-((1R,2S)-1-{[(cyclopropylsulfonyl)amino]carbonyl}-2-vinylcyclopropyl)-5,8,19-trioxo-1,2,3,3a,5,6,7,8,11,12,21,22,23,24,25,25a-hexadecahydro-10H,19H-9,12-methanocyclopenta[18,19][1,10,3,6,12]dioxatriazacyclotionadecino[12,11-b]isoquinoline-10-carboxamide] yielded a Ki of less than 0.1 nM.
